Reference: patent publication US12377176B2, “Cancer diagnostic imaging agents” (Technische Universität München, priority 2019, dated 2025)
Several values for one entry are separate records, joined by “and”; a condition that tells them apart may be missing. Equal entries are not always repeated. Where two headings read alike, the source gives them in different places. Each block holds one molecule with its values, some of them ahead of it.

Experiments:
HSA [1] = target: T1, HSA (Homo sapiens, UniProt P02768); test: HSA binding on Chiralpak HSA column; assay type: in vitro ADME; settings: for Log K HSA: logarithmic K of human serum albumin binding, calibration reference; for HSA Binding: Chiralpak HSA column (50 × 3 mm, 5 μm), (n = 6)
T1 construct: purchased H13H-2433
Procedure: The mobile phase (A: NH4OAc, 50 mM in water, pH 7 and B: isopropanol) was freshly prepared for each experiment and only used for one day. The column was kept at room temperature and each run was stopped after detection of the signal to reduce the acquisition time. All substances were dissolved in a 0.5 mg/ml concentration in 50% 2-propanol and 50% 50 mM pH 6.9 ammonium acetate buffer. […] All nine reference substances were injected consecutively to establish a non-linear regression with Origin Pro 2016G.

HSA [2] = target: T1, HSA; settings: literature value of human serum albumin binding (Yamazaki 2004); calibration reference; cited from earlier work
LNCaP cells = test: Internalization into LNCaP cells, relative to ([125I]I-BA)KuE; assay type: cell-based; settings: for internalization rate Mean / individual internalization rates: LNCaP cells, 1 h, 37 °C, c=0.5 nM; for individual internalization rates: single measurements
Procedure: Data is corrected for non-specific binding ([…]) and expressed as mean±SD (n=3).
Subsequent to the removal of the culture medium, the cells were washed once with 500 μL DMEM-F12 (5% BSA) and left to equilibrate for at least 15 min at 37° C. in 200 μL DMEM-F12 (5% BSA). Each well was treated with either 25 μL of either DMEM-F12 (5% BSA) or a 100 μM PMPA solution for blockade. Next, 25 μL of the ^68Ga/^18F-labeled PSMA inhibitor (5.0 nM) was added and the cells incubated at 37° C. for 60 min. The experiment was terminated by placing the 24-well plate on ice for 3 min and consecutive removal of the medium. Each well was rinsed with 250 μL HBSS and the fractions from these first two steps combined, representing the amount of free radioligand. Removal of surface bound activity was accomplished by incubation of the cells with 250 μL of ice-cold PMPA (10 μM in PBS) solution for 5 min and rinsed again with another 250 μL of ice-cold PBS. The internalized activity was determined by incubation of the cells in 250 μL 1 M NaOH and the combination with the fraction of a subsequent wash step with 250 μL 1.0 M NaOH. Each experiment (control and bloackde) was performed in triplicate. Free, surface bound and internalized activity was quantified in a γ-counter. […] Data were corrected for non-specific internalization and normalized to the specific-internalization observed for the radioiodinated reference compound.

[3] = tested on: LNCaP tumor-bearing CB-17 SCID mice; settings: male, mouse, in vivo, 1 h
Procedure: To establish tumor xenografts, LNCaP cells (10^7 cells/200 μL) were suspended in a 1:1 mixture (v/v) of Dulbecco modified Eagle medium/Nutrition Mixture F-12 with Glutamax-I (1:1) and Matrigel (BD Biosciences, Germany), and inoculated subcutaneously onto the right shoulder of 6-8 weeks old CB17-SCID mice (Charles River, Sulzfeld, Germany). Mice were used for when tumors had grown to a diameter of 5-8 mm (3-4 weeks after inoculation).
Approximately 1-2 MBq (<0.2 nmol) of the ^18F-labeled PSMA inhibitor was injected into the tail vein of LNCaP tumor-bearing male CB-17 SCID mice and sacrificed after 1 h post injection (n=4-5). Selected organs were removed, weighted and measured in a γ-counter

PSMA = target: T2, PSMA (Homo sapiens, UniProt Q04609); test: Determination of IC50: PSMA affinity, competition with ([125I]I-BA)KuE on LNCaP cells; assay type: binding
T2 construct: endogenous in cells; host or cells: LNCaP cells
Procedure: After removal of the culture medium, the cells were treated once with 500 μL of HBSS (Hank's balanced salt solution, Biochrom, Berlin, Germany, with addition of 1% bovine serum albumin (BSA)) and left 15 min on ice for equilibration in 200 μL HBSS (1% BSA). […] Quantification of bound and free radioligand was accomplished in a γ-counter.

[4] = Octanol-water partition coefficient (n-octanol/PBS pH 7.4); assay type: physicochemical
Procedure: Approximately 1 MBq of the labeled tracer was dissolved in 1 mL of a 1:1 mixture (by volumes) of phosphate buffered saline (PBS, pH 7.4) and n-octanol in an Eppendorf tube. After vigorous mixing of the suspension for 3 minutes at room temperature, the vial was centrifuged at 15000 g for 3 minutes (Biofuge 15, Heraus Sepatech, Osterode, Germany) and 100 μL aliquots of both layers were measured in a gamma counter. The experiment was repeated at least six times.
Determianation of the logP values was carried out in phosphate buffered saline (PBS, pH 7.4) and n-octanol (=logPoct/PBS).

[5] = Wängler et al., Bioconjug Chem. 2010; cited from earlier work
[6] = mean ± SD as quoted in the discussion
[7] = LNCaP cells, [125I]IB-KuE 0.2 nM, 1 h, 4 °C, HBSS+1% BSA, single measurements, read-out: individual IC50 measurements
[8] = LNCaP cells, [125I]IB-KuE 0.2 nM, 1 h, 4 °C, mean of the individual measurements, read-out: IC50 Mean

T1 sequence (P02768 25-609): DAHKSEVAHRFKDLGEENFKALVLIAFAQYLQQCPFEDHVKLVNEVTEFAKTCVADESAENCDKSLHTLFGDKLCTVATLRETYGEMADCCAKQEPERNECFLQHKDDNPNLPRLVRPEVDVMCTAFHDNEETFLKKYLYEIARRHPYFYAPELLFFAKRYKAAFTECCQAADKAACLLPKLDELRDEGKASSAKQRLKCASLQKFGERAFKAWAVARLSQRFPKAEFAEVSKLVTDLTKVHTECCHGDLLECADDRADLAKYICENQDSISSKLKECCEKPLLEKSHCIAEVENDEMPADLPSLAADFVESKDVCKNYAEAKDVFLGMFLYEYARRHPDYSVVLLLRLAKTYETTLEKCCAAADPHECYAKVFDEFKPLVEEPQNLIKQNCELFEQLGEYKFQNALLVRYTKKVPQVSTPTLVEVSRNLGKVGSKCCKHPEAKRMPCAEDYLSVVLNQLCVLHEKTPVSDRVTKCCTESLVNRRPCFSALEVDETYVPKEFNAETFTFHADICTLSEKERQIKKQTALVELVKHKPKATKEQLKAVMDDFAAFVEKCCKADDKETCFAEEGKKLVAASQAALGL
T2 sequence (Q04609 whole entry): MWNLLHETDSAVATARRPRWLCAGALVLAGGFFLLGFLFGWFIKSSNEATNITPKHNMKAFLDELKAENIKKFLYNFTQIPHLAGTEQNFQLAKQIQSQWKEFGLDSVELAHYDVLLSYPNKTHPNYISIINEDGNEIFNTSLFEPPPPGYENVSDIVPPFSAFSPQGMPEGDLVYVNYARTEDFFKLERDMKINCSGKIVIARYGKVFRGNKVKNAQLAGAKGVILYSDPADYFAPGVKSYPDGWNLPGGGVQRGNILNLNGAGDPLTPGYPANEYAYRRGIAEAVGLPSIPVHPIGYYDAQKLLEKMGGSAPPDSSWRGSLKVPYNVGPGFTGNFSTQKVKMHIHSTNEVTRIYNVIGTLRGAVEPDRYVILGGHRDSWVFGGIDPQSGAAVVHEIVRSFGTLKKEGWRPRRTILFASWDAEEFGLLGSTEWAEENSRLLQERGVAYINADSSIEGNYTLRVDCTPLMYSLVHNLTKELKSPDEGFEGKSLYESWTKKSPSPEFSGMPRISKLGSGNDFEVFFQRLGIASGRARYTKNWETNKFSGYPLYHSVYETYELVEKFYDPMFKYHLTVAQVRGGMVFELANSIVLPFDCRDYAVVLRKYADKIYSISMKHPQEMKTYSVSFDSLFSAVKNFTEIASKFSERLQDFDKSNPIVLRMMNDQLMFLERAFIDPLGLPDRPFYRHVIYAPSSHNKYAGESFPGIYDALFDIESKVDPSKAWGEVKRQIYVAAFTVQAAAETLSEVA

Molecule: Nc1ccccc1 [Aniline]
Log K HSA (HSA [1]): −0.79 | Lit. HSA % (HSA [2]): 14.06%

Molecule: O=C(O)c1ccccc1 [Benzoic Acid]
Lit. HSA % (HSA [2]): 34.27%

HSA Binding (HSA [1]): 14.3%
Molecule: O=C(O)CC[C@H](NC(=O)N[C@@H](CCCCNC(=O)c1ccc(F)nc1)C(=O)O)C(=O)O [DCFPyL]

Log K HSA (HSA [1]): 1.69
Molecule: COc1ccc(Cl)cc1C(=O)NCCc1ccc(S(=O)(=O)NC(=O)NC2CCCCC2)cc1 [Glibenclamide]
Lit. HSA % (HSA [2]): 99.00%

Molecule: Oc1ccccc1 [Phenol]
Log K HSA (HSA [1]): −0.59 | Lit. HSA % (HSA [2]): 20.69%

Molecule: CCCN(CCC)S(=O)(=O)c1ccc(C(=O)O)cc1 [Probenecid]
Lit. HSA % (HSA [2]): 95.00%

Molecule: O=[N+]([O-])c1ccc(O)cc1 [p-nitrophenol]
Lit. HSA % (HSA [2]): 77.65%

Molecule: CC(C)(C)[Si](F)(c1ccc(C(=O)NC[C@@H](NC(=O)CC[C@H](C(=O)O)N2CCN(CC(=O)O)CCN(CC(=O)O)CCN(CC(=O)O)CC2)C(=O)N[C@H](CCCCNC(=O)CCC(=O)NCCC[C@@H](NC(=O)CC[C@H](NC(=O)N[C@@H](CCC(=O)O)C(=O)O)C(=O)O)C(=O)O)C(=O)O)cc1)C(C)(C)C [rhPSMA7.1, [^19F][^natGa]D-Dap-R-DOTAGA-rhPSMA7, metal not drawn]
internalization rate Mean (LNCaP cells): 69.55 % of [^125I]IB-KuE | individual internalization rates (LNCaP cells): 77.5 % of [^125I]IB-KuE and 61.8 % of [^125I]IB-KuE and 70.6 % of [^125I]IB-KuE and 68.0 % of [^125I]IB-KuE and 67.9 % of [^125I]IB-KuE and 71.5 % of [^125I]IB-KuE | internalization (LNCaP cells; [6]): 69.55%±5.29 | Biodistribution adrenals [3]: 2.0 ± 0.25 % ID/g | Biodistribution blood [3]: 0.53 ± 0.13 % ID/g | Biodistribution bone [3]: 0.50 ± 0.31 % ID/g | Biodistribution heart [3]: 0.53 ± 0.03 % ID/g | Biodistribution intestine [3]: 0.30 ± 0.16 % ID/g | Biodistribution kidneys [3]: 220 ± 24.8 % ID/g | Biodistribution liver [3]: 0.75 ± 0.62 % ID/g | Biodistribution lung [3]: 1.1 ± 0.21 % ID/g | Biodistribution muscle [3]: 0.32 ± 0.30 % ID/g | Biodistribution pancreas [3]: 0.45 ± 0.12 % ID/g | Biodistribution spleen [3]: 20.0 ± 4.2 % ID/g | Biodistribution stomach [3]: 0.28 ± 0.17 % ID/g | Biodistribution tumor [3]: 14.1 ± 4.1 % ID/g | HSA Binding (HSA [1]): 97.7% | IC50 (PSMA; [7]): 5.04 nM and 7.11 nM and 8.31 nM and 4.97 nM and 6.44 nM and 8.74 nM and 6.91 nM and 7.27 nM | IC50 (PSMA; [8]): 6.85 nM

Molecule: CC(C)(C)[Si](F)(c1ccc(C(=O)NC[C@H](NC(=O)CC[C@H](C(=O)O)N2CCN(CC(=O)O)CCN(CC(=O)O)CCN(CC(=O)O)CC2)C(=O)N[C@H](CCCCNC(=O)CCC(=O)NCCC[C@@H](NC(=O)CC[C@H](NC(=O)N[C@@H](CCC(=O)O)C(=O)O)C(=O)O)C(=O)O)C(=O)O)cc1)C(C)(C)C [rhPSMA7.2, [^19F][^natGa]L-Dap-R-DOTAGA-rhPSMA7, metal not drawn]
internalization rate Mean (LNCaP cells): 191.83 % of [^125I]IB-KuE | individual internalization rates (LNCaP cells): 192.3 % of [^125I]IB-KuE and 188.7 % of [^125I]IB-KuE and 182.7 % of [^125I]IB-KuE and 169.5 % of [^125I]IB-KuE and 205.3 % of [^125I]IB-KuE and 212.6 % of [^125I]IB-KuE | internalization (LNCaP cells; [6]): 191.83%±15.54 | Biodistribution adrenals [3]: 1.3 ± 0.8 % ID/g | Biodistribution blood [3]: 0.56 ± 0.20 % ID/g | Biodistribution bone [3]: 0.31 ± 0.24 % ID/g | Biodistribution heart [3]: 0.32 ± 0.13 % ID/g | Biodistribution intestine [3]: 0.18 ± 0.07 % ID/g | Biodistribution kidneys [3]: 87.6 ± 28.8 % ID/g | Biodistribution liver [3]: 0.35 ± 0.08 % ID/g | Biodistribution lung [3]: 0.89 ± 0.38 % ID/g | Biodistribution muscle [3]: 0.13 ± 0.07 % ID/g | Biodistribution pancreas [3]: 0.21 ± 0.08 % ID/g | Biodistribution spleen [3]: 10.1 ± 6.3 % ID/g | Biodistribution stomach [3]: 0.19 ± 0.08 % ID/g | Biodistribution tumor [3]: 6.5 ± 2.3 % ID/g | HSA Binding (HSA [1]): 97.8% | individual log P measurements ([4]; octanol/PBS7.4, single measurements): −3.00 and −3.02 and −3.06 and −3.45 | logP ([4]; pH 7.4, log P): -3.13 ± 0.22 | logP ([4]; pH 7.4, log P Mean): -3.13 | IC50 (PSMA; [7]): 2.64 nM and 2.76 nM and 3.94 nM and 5.8 nM and 4.31 nM and 4.32 nM and 3.17 nM and 2.97 nM and 3.36 nM | IC50 (PSMA; [8]): 3.7 nM

Molecule: CC(C)(C)[Si](F)(c1ccc(C(=O)NC[C@H](NC(=O)CC[C@@H](C(=O)O)N2CCN(CC(=O)O)CCN(CC(=O)O)CCN(CC(=O)O)CC2)C(=O)N[C@H](CCCCNC(=O)CCC(=O)NCCC[C@@H](NC(=O)CC[C@H](NC(=O)N[C@@H](CCC(=O)O)C(=O)O)C(=O)O)C(=O)O)C(=O)O)cc1)C(C)(C)C [rhPSMA7.4, [^19F][^natGa]L-Dap-S-DOTAGA-rhPSMA7, metal not drawn]
internalization rate Mean (LNCaP cells): 207.33 % of [^125I]IB-KuE | individual internalization rates (LNCaP cells): 209.6 % of [^125I]IB-KuE and 202.6 % of [^125I]IB-KuE and 209.8 % of [^125I]IB-KuE | internalization (LNCaP cells; [6]): 207.33±4.06% | Biodistribution adrenals [3]: 3.57 ± 2.38 % ID/g | Biodistribution blood [3]: 1.15 ± 0.30 % ID/g | Biodistribution bone [3]: 0.62 ± 0.30 % ID/g | Biodistribution heart [3]: 0.71 ± 0.26 % ID/g | Biodistribution intestine [3]: 0.37 ± 0.09 % ID/g | Biodistribution kidneys [3]: 153 ± 80.3 % ID/g | Biodistribution liver [3]: 0.69 ± 0.20 % ID/g | Biodistribution lung [3]: 1.59 ± 0.61 % ID/g | Biodistribution muscle [3]: 0.31 ± 0.08 % ID/g | Biodistribution pancreas [3]: 0.50 ± 0.30 % ID/g | Biodistribution spleen [3]: 18.4 ± 9.77 % ID/g | Biodistribution stomach [3]: 0.25 ± 0.06 % ID/g | Biodistribution tumor [3]: 18.9 ± 3.27 % ID/g | HSA Binding (HSA [1]): 96.6% | IC50 (PSMA; [7]): 3.4 nM and 3.56 nM and 2.79 nM and 4.57 nM and 3.78 nM | IC50 (PSMA; [8]): 3.62 nM

Molecule: PSMA-1007 [reference compound]
internalization (LNCaP cells; other selected PSMA inhibitors, own lab, identical assay (Robu et al. 2018)): 118 ± 4 % of [^125I]IB-KuE | HSA Binding (HSA [1]): 97.8% | log P ([4]; octanol/PBS7.4, (n = 6)): −1.6 | IC50 (PSMA; other selected PSMA inhibitors, own lab, identical binding assay (Robu et al. 2018), read-out: IC50): 4.2 ± 0.5 nM

Molecule: SIFA-Asn(AcNH-β-Glc)-PEG-Tyr^3-octreotate
log P(ow) [5]: 0.96

Molecule: SIFA-Asn(AcNH-β-Glc)-Tyr^3-octreotate
log P(ow) [5]: 1.23
